# In US20220402935A1, “HETEROCYCLIC COMPOUND” (FIMECS, INC., priority 2019, published 2022):
# pIC50: −log10 of the molar value.
# Molecular target: T1, IRAK-M (Homo sapiens, UniProt Q9Y616)
# T1 sequence (Q9Y616 1-596): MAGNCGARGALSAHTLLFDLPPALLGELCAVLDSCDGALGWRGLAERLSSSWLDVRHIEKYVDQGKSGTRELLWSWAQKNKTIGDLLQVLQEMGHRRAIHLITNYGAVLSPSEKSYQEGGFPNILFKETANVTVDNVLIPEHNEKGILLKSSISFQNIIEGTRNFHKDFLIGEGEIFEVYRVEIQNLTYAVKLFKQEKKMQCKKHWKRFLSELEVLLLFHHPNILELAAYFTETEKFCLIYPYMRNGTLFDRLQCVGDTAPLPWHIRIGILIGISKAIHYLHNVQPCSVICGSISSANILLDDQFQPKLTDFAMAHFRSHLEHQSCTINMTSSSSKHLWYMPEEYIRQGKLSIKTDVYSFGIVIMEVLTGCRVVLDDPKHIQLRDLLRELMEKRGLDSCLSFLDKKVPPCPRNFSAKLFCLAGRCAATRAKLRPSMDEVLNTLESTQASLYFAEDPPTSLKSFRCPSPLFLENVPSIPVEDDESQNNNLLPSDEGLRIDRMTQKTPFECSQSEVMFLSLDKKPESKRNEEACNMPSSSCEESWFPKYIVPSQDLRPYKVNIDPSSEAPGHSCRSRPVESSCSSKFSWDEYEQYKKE
# Assay: IRAK-M binding inhibitory activity (KINOMEscan active site-dependent competitive assay)
# Set-up: purchased Eurofins Discover X
# Details: concentration of the test compound 1 μM; first symbol of cell; read-out: IRAK-M binding inhibition activity % Ctrl
# Experimental: IRAK-M binding inhibitory activity was evaluated using active site-dependent competitive assay KINOMEscan® provided by Eurofins Discover X (Goldstein, D. M. et al. High-throughput kinase profiling as a platform for drug discovery. Nat. Rev. Drug Discovery. 7, 391-397 (2008)). IRAK-M binding inhibitory activity of the test compound was evaluated. […] The “% Ctrl” is calculated by the following formula.
# (test compound signal−positive control compound signal)/(negative control compound signal−positive control compound signal)×100
# Negative control compound=DMSO (100 Ctrl)
# Positive control compound=control compound (0%×Ctrl)
row,Structure (SMILES),remaining binding at 1 µM [%]
1,"O=C1OCc2cc(Nc3ncnc4ccsc34)ccc21 [Ref. example 29, 5-(thieno[3,2-d]pyrimidin-4-ylamino)isobenzofuran-1(3H)-one]",25 to 50
2,"C=CCOc1cc(C(C)N2CCC(Oc3ccnc4cc(C)sc34)CC2)on1 (stereo not drawn) [Ref. example 8, 3-(allyloxy)-5-(1-(4-((2-methylthieno[3,2-b]pyridin-7-yl)oxy)piperidin-1-yl)ethyl)isoxazole (enantiomer)]",< 25
3,"O=S(=O)(c1ccccc1F)N1CCC(Oc2ncnc3ccsc23)CC1 [Ref. example 49, 4-((1-((2-fluorophenyl)sulfonyl)piperidin-4-yl)oxy)thieno[3,2-d]pyrimidine]",25 to 50
4,"CN1CCC(Oc2ncnc3cc(I)sc23)CC1 [Ref. example 36, 6-iodo-4-((1-methylpiperidin-4-yl)oxy)thieno[3,2-d]pyrimidine]",≥ 75
5,"Cn1nc(O)cc1CN1CCC(Oc2ccnc3ccsc23)CC1 [Ref. example 68, 1-methyl-5-((4-(thieno[3,2-b]pyridin-7-yloxy)piperidin-1-yl)methyl)-1H-pyrazol-3-ol]",25 to 50
6,"O=S(=O)(c1ccc(F)cc1)N1CCC(Oc2ncnc3ccsc23)CC1 [Ref. example 53, 4-((1-((4-fluorophenyl)sulfonyl)piperidin-4-yl)oxy)thieno[3,2-d]pyrimidine]",25 to 50
7,"c1ccc(-c2cc3ncnc(Nc4ccccn4)c3s2)cc1 [Ref. example 15, 6-phenyl-N-(pyridin-2-yl)thieno[3,2-d]pyrimidin-4-amine]",25 to 50
8,"Cc1nn(C)c(C)c1CN1CCC(Oc2ccnc3ccsc23)CC1 [Ref. example 75, 7-((1-((1,3,5-trimethyl-1H-pyrazol-4-yl)methyl)piperidin-4-yl)oxy)thieno[3,2-b]pyridine]",≥ 75
9,"Cn1cc(CN2CCC(Oc3ccnc4ccsc34)CC2)cn1 [Ref. example 73, 7-((1-((1-methyl-1H-pyrazol-4-yl)methyl)piperidin-4-yl)oxy)thieno[3,2-b]pyridine]",≥ 75
10,"FC(F)(F)c1cc(Nc2ncnc3ccsc23)ccn1 [Ref. example 22, N-(2-(trifluoromethyl)pyridin-4-yl)thieno[3,2-d]pyrimidin-4-amine]",50 to 75
11,"O=C(Cn1nccn1)N1CCC(Oc2ccnc3ccsc23)CC1 [Ref. example 82, 1-(4-(thieno[3,2-b]pyridin-7-yloxy)piperidin-1-yl)-2-(2H-1,2,3-triazol-2-yl)ethan-1-one]",50 to 75
12,"NC(=O)c1ccc(Nc2ncnc3ccsc23)cc1 [Ref. example 18, 4-(thieno[3,2-d]pyrimidin-4-ylamino)benzamide]",50 to 75
13,"O=C(Cn1cccn1)N1CCC(Oc2ccnc3ccsc23)CC1 [Ref. example 81, 2-(1H-pyrazol-1-yl)-1-(4-(thieno[3,2-b]pyridin-7-yloxy)piperidin-1-yl)ethan-1-one]",50 to 75
14,"O=S(=O)(c1ccccc1Oc1ccc(F)cc1)N1CCC(Oc2ncnc3ccsc23)CC1 [Ref. example 48, 4-((1-((2-(4-fluorophenoxy)phenyl)sulfonyl)piperidin-4-yl)oxy)thieno[3,2-d]pyrimidine]",< 25
15,"c1nc(Nc2ccc3cn[nH]c3c2)c2sccc2n1 [Ref. example 28, N-(1H-indazol-6-yl)thieno[3,2-d]pyrimidin-4-amine]",50 to 75
16,"O=S(=O)(c1cccc(Cl)c1)N1CCC(Oc2ncnc3ccsc23)CC1 [Ref. example 57, 4-((1-((3-chlorophenyl)sulfonyl)piperidin-4-yl)oxy)thieno[3,2-d]pyrimidine]",25 to 50
17,"O=S(=O)(c1cccnc1)N1CCC(Oc2ncnc3ccsc23)CC1 [Ref. example 58, 4-((1-(pyridin-3-ylsulfonyl)piperidin-4-yl)oxy)thieno[3,2-d]pyrimidine]",25 to 50
18,"CCOc1ccc(Nc2ncnc3ccsc23)cc1 [Ref. example 65, N-(4-ethoxyphenyl)thieno[3,2-d]pyrimidin-4-amine]",≥ 75
19,"c1ccc(CCNc2ncnc3cc(-c4ccccc4)sc23)cc1 [Ref. example 17, N-phenethyl-6-phenylthieno[3,2-d]pyrimidin-4-amine]",≥ 75
20,"COc1ccccc1Nc1ncnc2cc(-c3ccccc3)sc12 [Ref. example 13, N-(2-methoxyphenyl)-6-phenylthieno[3,2-d]pyrimidin-4-amine]",≥ 75
21,"COCCS(=O)(=O)N1CCC(Oc2ncnc3ccsc23)CC1 [Ref. example 40, 4-((1-((2-methoxyethyl)sulfonyl)piperidin-4-yl)oxy)thieno[3,2-d]pyrimidine]",25 to 50
22,"COc1ccc(S(=O)(=O)N2CCC(Oc3ncnc4ccsc34)CC2)cc1 [Ref. example 51, 4-((1-((4-methoxyphenyl)sulfonyl)piperidin-4-yl)oxy)thieno[3,2-d]pyrimidine]",25 to 50
23,"Ic1cc2ncnc(OC3CCSCC3)c2s1 [Ref. example 35, 6-iodo-4-((tetrahydro-2H-thiopyran-4-yl)oxy)thieno[3,2-d]pyrimidine]",≥ 75
24,"Ic1cc2ncnc(OC3CCOCC3)c2s1 [Ref. example 34, 6-iodo-4-((tetrahydro-2H-pyran-4-yl)oxy)thieno[3,2-d]pyrimidine]",≥ 75
25,"O=C1NC(=O)c2cc(Nc3ncnc4ccsc34)ccc21 [Ref. example 27, 5-(thieno[3,2-d]pyrimidin-4-ylamino)isoindoline-1,3-dione]",50 to 75
26,"c1csc(CN2CCC(Oc3ccnc4ccsc34)CC2)n1 [Ref. example 79, 7-((1-(thiazol-2-ylmethyl)piperidin-4-yl)oxy)thieno[3,2-b]pyridine]",25 to 50
27,"Cc1cc2nccc(OC3CCN(Cc4cc(O)no4)CC3)c2s1 [Ref. example 87, 5-((4-((2-methylthieno[3,2-b]pyridin-7-yl)oxy)piperidin-1-yl)methyl)isoxazol-3-ol]",25 to 50
28,"COc1ccccc1S(=O)(=O)N1CCC(Oc2ncnc3ccsc23)CC1 [Ref. example 46, 4-((1-((2-methoxyphenyl)sulfonyl)piperidin-4-yl)oxy)thieno[3,2-d]pyrimidine]",< 25

# Same assay, conditions: second symbol of cell; read-out: IRAK-M binding inhibition IC50 value
row,Structure (SMILES),pIC50
1,"C=CCOc1cc(CN2CCC(Oc3ncnc4ccsc34)CC2)on1 [Ref. example 70, 3-(allyloxy)-5-((4-(thieno[3,2-d]pyrimidin-4-yloxy)piperidin-1-yl)methyl)isoxazole]",6.52 to 7.00
2,"Cc1ncsc1-c1ccc(CNC(=O)[C@@H]2C[C@@H](O)CN2C(=O)[C@@H](NC(=O)COCCOCCOCCOc2cc(CN3CCC(Oc4ccnc5ccsc45)CC3)on2)C(C)(C)C)cc1 [Example 61, (2S,4R)-1-((S)-2-(tert-butyl)-4-oxo-14-((5-((4-(thieno[3,2-b]pyridin-7-yloxy)piperidin-1-yl)methyl)isoxazol-3-yl)oxy)-6,9,12-trioxa-3-azatetradecanoyl)-4-hydroxy-N-(4-(4-methylthiazol-5-yl)benzyl)pyrrolidine-2-carboxamide]",6.00 to 6.52
